Laboratory results: the supplement of paper PMC10307832

Tests used:
Experiment in all cases: relative viability (nuclei count vs DMSO), 5 days (fraction); higher = more cells survive
[1] = test system: NCI-H661
Procedure, shortened: (§1)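 Nuclei were stained with Hoechst during a one-step fixation (final 0.05% Triton X-100, 1% formaldehyde, 1 ug/ml Hoechst) carried out 5 days after dosing, then counted on 4× images. The cells, lung cancer lines in 1536-well plates, had been dosed by pin tool the day after seeding with one drug alone or a fixed anchor-drug dose plus five library-drug doses (not always all listed) in √10 steps. Relative viability is the nuclei count in treated wells divided by that in vehicle wells, and each value is the median of duplicate plates.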

[2] = test system: LC-2-ad
Procedure, shortened: as §1

[3] = test system: HCC-78
Procedure, shortened: as §1

[4] = test system: NCI-H2347
Procedure, shortened: as §1

[5] = test system: PC-14
Procedure, shortened: as §1

[6] = test system: NCI-H520
Procedure, shortened: as §1

[7] = test system: EPLC-272H
Procedure, shortened: as §1

[8] = test system: NCI-H322M
Procedure, shortened: as §1

[9] = test system: NCI-H647
Procedure, shortened: as §1

[10] = test system: 201T
Procedure, shortened: as §1

[11] = test system: LCLC-97TM1
Procedure, shortened: as §1

[12] = test system: NCI-H23
Procedure, shortened: as §1

[13] = test system: NCI-H2087
Procedure, shortened: as §1

[14] = test system: HCC-827
Procedure, shortened: as §1

[15] = test system: NCI-H2405
Procedure, shortened: as §1

[16] = test system: NCI-H1666
Procedure, shortened: as §1

[17] = test system: ChaGo-K-1
Procedure, shortened: as §1

[18] = test system: RERF-LC-KJ
Procedure, shortened: as §1

[19] = test system: NCI-H1915
Procedure, shortened: as §1

[20] = test system: NCI-H650
Procedure, shortened: as §1

[21] = test system: COR-L 105
Procedure, shortened: as §1

[22] = test system: H3255
Procedure, shortened: as §1

[23] = test system: NCI-H2126
Procedure, shortened: as §1

In the case of `CC1(C)CCC(c2ccc(Cl)cc2)=C(CN2CCN(c3ccc(C(=O)NS(=O)(=O)c4ccc(N[C@H](CCN5CCOCC5)CSc5ccccc5)c(S(=O)(=O)C(F)(F)F)c4)cc3)CC2)C1` [Navitoclax] + Cc1cc(Nc2cc(N3CCN(C)CC3)nc(Sc3ccc(NC(=O)C4CC4)cc3)n2)n[nH]1 [Tozasertib] (partner 0.1 µM), the relative viability ([1]; first compound 0.005 µM) is reported as 0.355, the relative viability ([1]; first compound 0.01581 µM) is reported as 0.344 and the relative viability ([1]; first compound 0.05 µM) is reported as 0.341. The relative viability ([1]; first compound 0.1581 µM) was 0.363, the relative viability ([1]; first compound 0.5 µM) was 0.358 and the relative viability ([2]; first compound 0.005 µM) was 0.455. It also gave a relative viability ([2]; first compound 0.01581 µM) of 0.544, a relative viability ([2]; first compound 0.05 µM) of 0.546 and a relative viability ([2]; first compound 0.1581 µM) of 0.507. For the same compound, the relative viability ([2]; first compound 0.5 µM) was 0.343, the relative viability ([3]; first compound 0.005 µM) was 0.403 and the relative viability ([3]; first compound 0.01581 µM) was 0.594. For the same compound, the relative viability ([3]; first compound 0.1581 µM) was 0.584, the relative viability ([3]; first compound 0.5 µM) was 0.428 and the relative viability ([4]; first compound 0.005 µM) was 0.505. It also gave a relative viability ([4]; first compound 0.01581 µM) of 0.516, a relative viability ([4]; first compound 0.1581 µM) of 0.614 and a relative viability ([4]; first compound 0.5 µM) of 0.668. The relative viability ([5]; first compound 0.005 µM) was 0.623, the relative viability ([5]; first compound 0.01581 µM) was 0.633 and the relative viability ([5]; first compound 0.05 µM) was 0.7. For the same compound, the relative viability ([5]; first compound 0.1581 µM) was 0.553, the relative viability ([5]; first compound 0.5 µM) was 0.559 and the relative viability ([6]; first compound 0.005 µM) was 0.511. For the same compound, the relative viability ([6]; first compound 0.01581 µM) was 0.408, the relative viability ([6]; first compound 0.05 µM) was 0.419 and the relative viability ([6]; first compound 0.1581 µM) was 0.376. It also gave a relative viability ([6]; first compound 0.5 µM) of 0.392, a relative viability ([7]; first compound 0.005 µM) of 0.28 and a relative viability ([7]; first compound 0.05 µM) of 0.313. For the same compound, the relative viability ([7]; first compound 0.1581 µM) was 0.204, the relative viability ([7]; first compound 0.5 µM) was 0.242 and the relative viability ([8]; first compound 0.005 µM) was 0.48. The relative viability ([8]; first compound 0.01581 µM) was 0.579, the relative viability ([8]; first compound 0.05 µM) was 0.491 and the relative viability ([8]; first compound 0.1581 µM) was 0.548. It also gave a relative viability ([8]; first compound 0.5 µM) of 0.532, a relative viability ([9]; first compound 0.005 µM) of 0.301 and a relative viability ([9]; first compound 0.01581 µM) of 0.268. The relative viability ([9]; first compound 0.05 µM) was 0.292, the relative viability ([9]; first compound 0.1581 µM) was 0.27 and the relative viability ([9]; first compound 0.5 µM) was 0.251. For the same compound, the relative viability ([10]; first compound 0.005 µM) was 0.975, the relative viability ([10]; first compound 0.01581 µM) was 1.04 and the relative viability ([10]; first compound 0.05 µM) was 0.778. The relative viability ([10]; first compound 0.1581 µM) was 0.931, the relative viability ([10]; first compound 0.5 µM) was 1.01 and the relative viability ([11]; first compound 0.005 µM) was 0.238. The relative viability ([11]; first compound 0.01581 µM) was 0.164, the relative viability ([11]; first compound 0.05 µM) was 0.255 and the relative viability ([11]; first compound 0.1581 µM) was 0.193. It also gave a relative viability ([11]; first compound 0.5 µM) of 0.224, a relative viability ([12]; first compound 0.005 µM) of 0.398 and a relative viability ([12]; first compound 0.01581 µM) of 0.353. For the same compound, the relative viability ([12]; first compound 0.05 µM) was 0.336, the relative viability ([12]; first compound 0.1581 µM) was 0.325 and the relative viability ([12]; first compound 0.5 µM) was 0.352. For the same compound, the relative viability ([13]; first compound 0.005 µM) was 0.245, the relative viability ([13]; first compound 0.01581 µM) was 0.236 and the relative viability ([13]; first compound 0.1581 µM) was 0.197. For the same compound, the relative viability ([13]; first compound 0.5 µM) was 0.294, the relative viability ([14]; first compound 0.005 µM) was 0.437 and the relative viability ([14]; first compound 0.01581 µM) was 0.453. The relative viability ([14]; first compound 0.05 µM) was 0.384, the relative viability ([14]; first compound 0.1581 µM) was 0.39 and the relative viability ([14]; first compound 0.5 µM) was 0.454. The relative viability ([15]; first compound 0.005 µM) was 0.761, the relative viability ([15]; first compound 0.01581 µM) was 0.787 and the relative viability ([15]; first compound 0.05 µM) was 0.735. It also gave a relative viability ([15]; first compound 0.1581 µM) of 0.731, a relative viability ([15]; first compound 0.5 µM) of 0.681 and a relative viability ([16]; first compound 0.005 µM) of 0.626. The relative viability ([16]; first compound 0.01581 µM) was 0.638, the relative viability ([16]; first compound 0.05 µM) was 0.61 and the relative viability ([16]; first compound 0.1581 µM) was 0.587. It also gave a relative viability ([16]; first compound 0.5 µM) of 0.666, a relative viability ([17]; first compound 0.005 µM) of 0.238 and a relative viability ([17]; first compound 0.01581 µM) of 0.225. For the same compound, the relative viability ([17]; first compound 0.05 µM) was 0.184, the relative viability ([17]; first compound 0.1581 µM) was 0.239 and the relative viability ([17]; first compound 0.5 µM) was 0.216. The relative viability ([18]; first compound 0.005 µM) was 0.507, the relative viability ([18]; first compound 0.01581 µM) was 0.369 and the relative viability ([18]; first compound 0.05 µM) was 0.536. The relative viability ([18]; first compound 0.1581 µM) was 0.526, the relative viability ([18]; first compound 0.5 µM) was 0.464 and the relative viability ([19]; first compound 0.005 µM) was 0.42. The relative viability ([19]; first compound 0.01581 µM) was 0.422, the relative viability ([19]; first compound 0.05 µM) was 0.432 and the relative viability ([19]; first compound 0.1581 µM) was 0.414. The relative viability ([19]; first compound 0.5 µM) was 0.418, the relative viability ([20]; first compound 0.005 µM) was 0.711 and the relative viability ([20]; first compound 0.01581 µM) was 0.818. It also gave a relative viability ([20]; first compound 0.05 µM) of 0.781, a relative viability ([20]; first compound 0.1581 µM) of 0.765 and a relative viability ([20]; first compound 0.5 µM) of 0.718. For the same compound, the relative viability ([21]; first compound 0.005 µM) was 0.353, the relative viability ([21]; first compound 0.01581 µM) was 0.338 and the relative viability ([21]; first compound 0.05 µM) was 0.369. For the same compound, the relative viability ([21]; first compound 0.1581 µM) was 0.348, the relative viability ([21]; first compound 0.5 µM) was 0.29 and the relative viability ([22]; first compound 0.005 µM) was 0.532. The relative viability ([22]; first compound 0.01581 µM) was 0.705, the relative viability ([22]; first compound 0.05 µM) was 0.673 and the relative viability ([22]; first compound 0.1581 µM) was 0.585. It also gave a relative viability ([22]; first compound 0.5 µM) of 0.609, a relative viability ([23]; first compound 0.005 µM) of 0.817 and a relative viability ([23]; first compound 0.01581 µM) of 0.906. It also gave a relative viability ([23]; first compound 0.05 µM) of 0.858, a relative viability ([23]; first compound 0.1581 µM) of 0.823 and a relative viability ([23]; first compound 0.5 µM) of 0.749.
